One data set can be described thus: Body weight gain in mice. The settings on record: test compounds 60 mg/kg s.c., prednisolone 10 mg/kg i.p., once a day for 6 days (Days 0-5), average ± standard deviation; for Body Weight Gain, Observation Day 5: non-administered 0.50± 0.23; for Body Weight Gain, Observation Day 7: non-administered 0.80± 0.48; for Body Weight Gain, Observation Day 10: non-administered 1.07± 0.58.

Data set [1] deals with mouse experimental atopic dermatitis models. The experiment in a line: Auricle edema in experimental atopic dermatitis model (anti-DNP IgE sensitization, DNFB elicitation). Type of data set: in vivo, Balb/c mice. The settings on record: test compounds 60 mg/kg s.c., prednisolone 10 mg/kg i.p.; for % Inhibition LPR: auricle edema Day 1 post-elicitation; for % Inhibition LPR / % Inhibition IPR: once a day, 24 & 2 hours prior to DNFB-elicitation, vs untreated group; for % Inhibition vLPR: auricle edema Day 7 post-elicitation; for % Inhibition IPR: auricle edema 1 hour post-elicitation. Here is the method:
Intravenous injection of an anti-2,4-dinitrophenol (DNP) antibody (anti-DNP Ab, monoclonal IgE Ab; its antibody titer was 1 : 512 to 1 : 1024 by a rat heterologous passive cutaneous anaphylaxis reaction using a Wister rat) into a tail vein of female Balb/c mice (7-week old, body weight: 17 to 20 g, purchased from JAPAN SLC, Inc.) at a dose of […] per animal raised passive sensitization. Twenty four hours post-sensitization, 0.1% 2,4-dinitrofluorobenzene (DNFB; Nacalai Tesque, Inc.) in ethanol was painted onto both sides of a pair of mouse auricles at a dose of 10µL per each side for elicitation.
Fresh unsensitized mice were painted with 0.1% DNFB in ethanol onto their ear in the same manner as aforementioned and served as a control group. Not only immediately prior to elicitation but also 1 hour, 5 hours, daily between Days 1 and 14, and on Day 16 post-elicitation, ear thickness was measured using a dial thickness gauge (Peacock Co.). Each degree of auricle edemas was calculated: Auricular Edema (µm)=(Ear Thickness Post-Elicitation, µm) - (Ear Thickness immediately prior to Elicitation, µm) [formula]
Balb/c mice were passively sensitized with anti-DNP IgE Ab in the same manner as in Example 1. Twenty four hours later, 0.1% DNFB in ethanol was painted onto both sides of a pair of mouse auricles at a dose of 10 µL per each side for elicitation.
Immediately prior to elicitation, 1 hour and on Day 1 post-elicitation, auricle thickness was measured in the same manner as in Example 1. Each therapeutic efficacy is recorded as a percent inhibition wherein the "auricle edema (untreated group)" is used as a control. Auricle Edema Inhibition (%) = [ 1 -(Auricle Edema (Treated Group))/(Auricle Edema (Untreated Group))] × 100 (%) [formula]
Immediately prior to elicitation, and on Day 7 post-elicitation, auricle thickness was similarly measured. Each therapeutic efficacy is recorded as a percent inhibition wherein the auricle edema in the untreated group is used as a control.
Immediately prior to elicitation, and on Day 7 post-elicitation, auricle thickness was similarly measured. Each therapeutic efficacy is recorded as a percent inhibition wherein the auricle edema (untreated group) is used as a control.
Immediately prior to elicitation, at 1 and 4 hours and on Days 1, 3 and 7 post-elicitation, auricle thickness was similarly measured. From each auricle edema (µm) based on the auricle thickness immediately prior to elicitation, especially a prophylactically therapeutic efficacy of the test compound was evaluated.
Immediately prior to elicitation, at 0.5, 1 and 4 hours and on Days 1, 3 and 7 post-elicitation, auricle thickness was similarly measured. Each amount of auricle edemas was calculated (average± standard deviation).

Data set [2] concerns guinea pig experimental bronchial asthma models. The data set is described as follows: Experimental bronchial asthma model (ovalbumin inhalation): airway resistance and asthmatic death.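 On all read-outs here: female Std:Hartley guinea pigs sensitized by inhaling nebulized ovalbumin once daily for 8 consecutive days, 8 to 11 animals per group.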 The settings on record: test compounds 15 mg/kg s.c. (Compound No. 114: 30 mg/kg), prednisolone 10 mg/kg orally; for % Survival: asthmatic death within several minutes after elicitation, water for injection 54.5, 0.5% methyl cellulose 66.7; for % Amelioration in Airway Resistance, 1 Hour after Elicitation / % Amelioration in Airway Resistance, 6 Hours after Elicitation / % Amelioration in Airway Resistance, Immediately after Elicitation: 24 and 2 hours prior to elicitation, vs solvent control.
Experimental: Guinea pigs (female, Std:Hartley, 3 weeks old, 200 to 250 g) were individually housed in a plastic chamber (width, 200 mm; depth, 300 mm; height, 167 mm). Aqueous ovalbumin (10 mg/mL) was administered to the guinea pigs once a day for sensitization by 10 min. inhalation with a nebulizer (5B, Nippon Shoji K.K.: flow rate, 6 L/min.) at a dose of 10 mg/mL during 8 cosecutive days. On Day 7 after the final sensitization, the guinea pigs were housed in a plastic chamber and inhaled using a nebulizer with a solution of ovalbumin (10 mg/mL) in physiological saline for 1 min. for elicitation (Matsumoto, T., et al., The Journal of Pharmacology and Experimental Therapeutics, 269: 1236-1244, 1994). The number of animals employed in the experiment was set to the extent there are at least 6 as individuals escaping asthmatic death. A solution of a test compound (Compound No. 130, 15 mg/kg) in water for injection was administered subcutaneously twice, i.e., 24 hours and 2 hours prior to elicitation. Similarly, the solvent alone was also administered to a negative control group. A suspension of prednisolone (10 mg/kg) in 0.5% aqueous methyl cellulose was administered orally twice, i.e., 24 hours and 2 hours prior to elicitation. Similarly, the solvent alone was also administered to another control group.
The evaluation for efficacies was conducted in terms of airway resistance. For this purpose, an apparatus dedicated to the measurement of airway resistance (K.K. Medical Agent) was employed. Measurement includes setting a guinea pig in a test chamber under a not-anesthetized condition, applying sinusoidal pressure waves of 30 Hz components to a part below the neck of the animal from the back side of the chamber, measuring respiratory waves of 30 Hz components leaking through the mouth (volume of 30 Hz air flow passing through the respiratory tract) in front of the neck, and calculating airway resistance mechanically. Measurement was carried out immediately prior to the first drug treatment (24 hours before elicitation), just prior to elicitation, 10 minutes, 1, 2, 4, 6, and 8 hours post-elicitation.
It was visually observed by a person carrying out said test in terms, of the appearance of cyanosis or suffocative death (asthmatic death) due to respiratory obstruction.
Guinea pigs were sensitized with ovalbumin and asthma was induced on Day 7 after final sensitization in the same manner as in Example 20. The number of animals employed in the experiment was set to the extent there are at least 6 as individuals escaping asthmatic death (8 to 11 animals/group). In the same manner as in Example 20, the animals were measured for airway resistance mechanically and each percent change (%) in airway resistance was calculated (each value just prior to elicitation was set as 100%). Each percent amelioration in airway resistance was calculated from the percent changes in airway resistance according to the following formula: Amelioration in Airway Resistance (%) = 1 -[((Percent Change in Airway Resistance after Drug-Administration) - (Value just prior to Challenge (100)))/((Percent Change in Airway Resistance after Solvent-Administration) - (Value just prior to Challenge (100)))]× 100 [formula]

The mark [3] stands for this setting: daily from 1 day prior to through 5 days after DNFB-elicitation.
The mark [4] stands for this setting: daily from 3 to 6 days after DNFB-elicitation.

Experimental for Body weight gain in mice: Accordingly, for assessing the side-effect each of the following test compounds an action on body weight gains was examined.
Next the mice were measured for their body weight. Each body weight gain was calculated on Days 5, 7 and 10 post-administration based on the body weight just prior to administration.

With `CNC(=O)C(CCCN)NC(=O)C(CC(C)C)C(CCCc1ccc(NC(=N)N)cc1)C(=O)NO` (racemic) [Compound No. 46, N^a-[4-(Hydroxyamino)-2(R)-isobutyl-3(RS)-[3-(4'-guanidinophenyl)propyl]succinyl]-L-ornithine-N-methylamide · 2 acetate], in “Body weight gain in mice”, the “Body Weight Gain, Observation Day 5” value came out at 1.08± 0.22; the “Body Weight Gain, Observation Day 7” value was found to be 1.57± 0.33; the “Body Weight Gain, Observation Day 10” value was 1.33± 0.32. The “% Inhibition LPR” value in data set [1] is reported as 46.7%. Further, the “% Inhibition vLPR” value in data set [1] (setting [3]) is listed as 27.5%.
On to `CC(=O)O.CNC(=O)[C@H](Cc1ccc(NC(=N)N)cc1)NC(=O)[C@@H](CC(=O)NO)CC(C)C` [Compound No. 121, N-[4-(N-Hydroxyamino)-2(R)-isobutylsuccinyl]-L-4'-guanidophenylalanine-N-methylamide 1 acetate], for which, in data set [2], the “% Survival” value amounted to 88.9%; the “% Amelioration in Airway Resistance, 1 Hour after Elicitation” value (“% Amelioration … 1 Hour after Elicitation” below) turned out to be 56.4%; the “% Amelioration in Airway Resistance, 6 Hours after Elicitation” value (shortened to “% Amelioration … 6 Hours after Elicitation”) was 102.2%.
As to `CNC(=O)[C@H](CCCCN)NC(=O)[C@H](CC(C)C)C(CCCc1ccc(C(=O)OC)cc1)C(=O)NO` (single isomer, unassigned) [Compound No. 65, N^a-[4-(Hydroxyamino)-2(R)-isobutyl-3(R or S)-[3-(p-methoxycarbonylphenyl)propyl]succinyl]-L-lysine N-methylamide · 1 acetate], in data set [2], the “% Survival” value is reported as 87.5%; the “% Amelioration … 1 Hour after Elicitation” value turned out to be 22.3%; the “% Amelioration … 6 Hours after Elicitation” value was found to be 63.6%; the “% Amelioration in Airway Resistance, Immediately after Elicitation” value (from here on “% Amelioration … Immediately after Elicitation”) came to 29.9%.
Regarding `CC(=N)NCc1ccc(CC(NC(=O)C(CC(C)C)C(CC(C)C)C(=O)NO)C(=O)NCCO)cc1` (racemic) [Compound No. 91, N^a-[4-(Hydroxyamino)-2(R),3(RS)-diisobutylsuccinyl]-4'-acetimidoyliminomethyl-L-phenylalanine N-(2-hydroxyethyl)amide · 2 acetate], in “Body weight gain in mice”, the “Body Weight Gain, Observation Day 5” value was 1.28± 0.37; the “Body Weight Gain, Observation Day 7” value is 1.55± 0.48; the “Body Weight Gain, Observation Day 10” value is on record as 1.30± 0.54. In addition, the “% Inhibition LPR” value in data set [1] worked out at 43.0%.
As to `CNC(=O)[C@H](Cc1ccc(CN)cc1)NC(=O)[C@H](CC(C)C)[C@@H](CCCc1ccccc1)C(=O)NO.Cl` [Compound No. 128, N-[4-(N-Hydroxyamino)-2(R)-isobutyl-3(R)-(3-phenylpropyl)succinyl)-L-4'-aminomethylphenylalanine-N-methylamide · 1 hydrochloride], in data set [2], the “% Survival” value worked out at 72.7%; the “% Amelioration … 1 Hour after Elicitation” value is reported as 53.2%; the “% Amelioration … 6 Hours after Elicitation” value turned out to be 49.4%.
On to `CNC(=O)C(CCCNC(=N)N)NC(=O)C(CC(C)C)C(Cc1ccc(CN2C(=O)c3ccccc3C2=O)cc1)C(=O)NO` (single isomer, unassigned) [Compound No. 51, N^a-[4-(Hydroxyamino)-2(R)-isobutyl-3(R or S)-(p-phthalimidomethylbenzyl)succinyl]-L-arginine N-methylamide · 1 acetate], for which, in data set [2], the “% Survival” value came to 70.0%; the “% Amelioration … 1 Hour after Elicitation” value is reported as 59.1%; the “% Amelioration … 6 Hours after Elicitation” value is 56.3%; the “% Amelioration … Immediately after Elicitation” value came to 30.1%.
For `CNC(=O)C(CCCCNC(C)=N)NC(=O)C(CC(C)C)C(C)C(=O)NO` (racemic) [Compound No. 22, N^a-[4-(Hydroxyamino)-2(R)-isobutyl-3(RS)-methylsuccinyl]-N^e-acetimidoyl-L-lysine N-methylamide · 1 acetate], in the data set “Body weight gain in mice”, the “Body Weight Gain, Observation Day 5” value turned out to be 0.97± 0.31; the “Body Weight Gain, Observation Day 7” value stood at 0.80± 0.39; the “Body Weight Gain, Observation Day 10” value came to 1.20± 0.53. Also, in data set [1], the “% Inhibition IPR” value amounted to 52.7% and the “% Inhibition LPR” value turned out to be 33.1%. For the same molecule, the “% Inhibition vLPR” value in data set [1] (setting [4]) was found to be 49.5%.
`CC(=O)O.CNC(=O)[C@H](Cc1ccc(CNC(C)=N)cc1)NC(=O)[C@H](CC(C)C)[C@H](O)C(=O)NO` [Compound No. 43, N^a-[4-(Hydroxyamino)-2(R)-isobutyl-3(S)-hydroxysuccinyl]-4'-acetimidoyliminomethyl-L-phenylalanine N-methylamide · 1 acetate]: in data set [1], the “% Inhibition IPR” value was 38.2% and the “% Inhibition LPR” value came out at 39.2%. Moreover, the “% Inhibition vLPR” value in data set [1] (setting [4]) is reported as 43.6%.
The corresponding values for `CC(=O)O.CNC(=O)[C@H](Cc1ccc(CNC(C)=N)cc1)NC(=O)[C@H](CC(C)C)[C@H](CCCc1ccccc1)C(=O)NO` [Compound No. 126, N-[4-(N-Hydroxyamino)-2(R)-isobutyl-3(S)-(3-phenyltrimethylene)succinyl]-L-4'-acetimidoyliminomethylenephenyl alanine-N-methylamide · 1 acetate] are 38.2%, 39.2% and 44.7%.
For `CC(=N)N=Cc1ccc(C[C@H](NC(=O)[C@H](CC(C)C)C(CC(C)C)C(=O)NO)C(=O)NCCN(C)C)cc1.CC(=O)O.CC(=O)O` (single isomer, unassigned) [Compound No. 90, N^a-[4-(Hydroxyamino)-2(R),3(R or S)-diisobutylsuccinyl]-4'-acetimidoyliminomethyl-L-phenylalanine N-(2-N',N'-dimethylaminoethyl)amide · 2 acetate], in data set [1] (setting [3]), the “% Inhibition vLPR” value is recorded as 20.6%.
With `CC(=O)O.CC(C)C[C@H](C(=O)NO)[C@@H](CC(C)C)C(=O)N[C@@H](Cc1ccc(CN)cc1)C(=O)NCCC(=O)O` [Compound No. 127, N-[4-(N-Hydroxyamino)-2(R),3(S)-diisobutylsuccinyl]-L-4'-aminomethylphenylalaninyl-β-alanine · 1 acetate], in data set [2], the “% Survival” value stood at 70.0%; the “% Amelioration … 1 Hour after Elicitation” value came to 20.8%; the “% Amelioration … 6 Hours after Elicitation” value is recorded as 55.2%; the “% Amelioration … Immediately after Elicitation” value is listed as 21.9%. Besides, in data set [1], the “% Inhibition IPR” value came to 47.8% and the “% Inhibition LPR” value amounted to 41.1%. In addition, the “% Inhibition vLPR” value in data set [1] (setting [4]) turned out to be 20.6%. Also, the “% Inhibition vLPR” value in data set [1] (setting [3]) is 46.7%.
